Experimental data published in patent US12187761B2, “Compounds, compositions, and methods for the treatment of disease” (F-star Therapeutics, Inc., priority 2017, dated 2025).

Experiments:
IRF = assay: Induction of IRF in THP1 dual cells (ISG54 promoter Lucia reporter); type: cell-based; details: 20 h incubation, Lucia reporter (QUANTI-luc)
Procedure: (§1) Example 6. In Vitro Induction of IRF and NF-κβ in THP1 Cells Table 2
(§2) THP1 dual cells grown in complete media were treated with various concentrations of a compound of the present disclosure or DMSO control. Dual cells carry both secreted embryonic alkaline phosphatase (SEAP) reporter gene under the control of an IFN-β minimal promoter fused to five copies of the NF-kB consensus transcriptional response element to measure NF-kB activity and Lucia reporter gene under the control of an ISG54 minimal promoter to measure IRF activity. After 20 h incubation, IRF activity was assessed using QUANTI-luc to measure levels of Lucia and NF-kB activity was determined by measure SEAP levels at 620-655 nm. % induction was calculated from fold change in luminescence/absorbance compared to DMSO treated sample. […] EC50 values were generated by curve fit in Xlfit.
(§3) Cells grown in complete media were treated with various concentrations of a compound of the disclosure or DMSO control. Dual cells carry both secreted embryonic alkaline phosphatase (SEAP) reporter gene under the control of an IFN-β minimal promoter fused to five copies of the NF-kB consensus transcriptional response element to measure NF-kB activity and Lucia reporter gene under the control of an ISG54 minimal promoter to measure IRF activity. After 20 h incubation, IRF activity was assessed using QUANTI-luc to measure levels of Lucia and NF-kB activity was determined by measure SEAP levels at 620-655 nm. % induction was calculated from fold change in luminescence/absorbance compared to DMSO treated sample. EC50 values are generated by curve fit in Xlfit.

NF-κβ = assay: Induction of NF-κβ in THP1 dual cells (SEAP reporter); type: cell-based; details: 20 h incubation, SEAP levels at 620-655 nm
Procedure: as §1, §2, §3

Structure (SMILES)	EC50 (IRF) [nM]	EC50 (NF-κβ) [nM]
C=CCCC(=O)NCCCCCCCCCCCCOc1ccc(C(=O)Oc2ccc(CSP3(=O)OC[C@H]4O[C@@H](n5cnc6c(N)ncnc65)[C@H](F)[C@@H]4OP(=O)(O)OC[C@H]4O[C@@H](n5ccc(=O)[nH]c5=O)[C@H](F)[C@@H]4O3)cc2)cc1 (some centres unmarked) [Compound 8]	1000 to 2000	> 2000
Nc1ncnc2c1ncn2[C@@H]1O[C@@H]2COP(=O)(SCc3ccc(OC(=O)c4ccc(OCCCCCCCCCCO)cc4)cc3)O[C@H]3[C@@H](F)[C@H](n4ccc(=O)[nH]c4=O)O[C@@H]3COP(=O)(O)O[C@H]2[C@H]1F (some centres unmarked) [Compound 2]	< 50	500 to 1000
NCCCCCCCCCCOc1ccc(C(=O)Oc2ccc(CSP3(=O)OC[C@H]4O[C@@H](n5cnc6c(N)ncnc65)[C@H](F)[C@@H]4OP(=O)(O)OC[C@H]4O[C@@H](n5ccc(=O)[nH]c5=O)[C@H](F)[C@@H]4O3)cc2)cc1 (some centres unmarked) [Compound 1]	< 50	500 to 1000
NCCCOCCOCCOCCOc1ccc(C(=O)Oc2ccc(CSP3(=O)OC[C@H]4O[C@@H](n5cnc6c(N)ncnc65)[C@H](F)[C@@H]4OP(=O)(O)OC[C@H]4O[C@@H](n5ccc(=O)[nH]c5=O)[C@H](F)[C@@H]4O3)cc2)cc1 (some centres unmarked) [Compound 7]	50 to 500	1000 to 2000
